Read-outs that look alike come from different tables or passages of the source.
How the values were obtained:
[1] = target: T1, mitochondrial respiratory chain complex II (Rattus norvegicus, UniProt P21913+Q641Z9+Q6PCT8+Q920L2); test: Respiratory chain complex II activity; assay type: biochemical; conditions: tested up to 100μM
T1 construct: Submitochondrial particles were prepared by subjecting the intact rat mitochondria, isolated as described above, to three successive freeze–thaw cycles; from tissue; host or cells: rat liver mitochondria (submitochondrial particles)
T1 sequence (Q920L2 35-656): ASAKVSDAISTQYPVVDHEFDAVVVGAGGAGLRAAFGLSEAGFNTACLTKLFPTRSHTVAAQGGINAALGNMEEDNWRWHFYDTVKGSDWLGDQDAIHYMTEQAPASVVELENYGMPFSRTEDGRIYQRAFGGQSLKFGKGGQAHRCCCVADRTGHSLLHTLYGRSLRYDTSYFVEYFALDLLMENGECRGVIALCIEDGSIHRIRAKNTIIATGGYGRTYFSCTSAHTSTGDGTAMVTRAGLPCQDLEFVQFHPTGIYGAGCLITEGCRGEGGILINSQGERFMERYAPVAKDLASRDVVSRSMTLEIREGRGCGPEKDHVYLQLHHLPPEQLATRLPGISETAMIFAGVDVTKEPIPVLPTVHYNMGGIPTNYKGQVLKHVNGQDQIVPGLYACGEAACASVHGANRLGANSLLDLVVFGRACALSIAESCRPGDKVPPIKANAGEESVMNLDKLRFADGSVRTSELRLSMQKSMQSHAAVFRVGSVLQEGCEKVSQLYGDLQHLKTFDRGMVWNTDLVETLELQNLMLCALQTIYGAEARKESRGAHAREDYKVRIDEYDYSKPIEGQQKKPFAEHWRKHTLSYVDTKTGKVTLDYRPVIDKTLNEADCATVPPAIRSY
T1 sequence (P21913 31-282): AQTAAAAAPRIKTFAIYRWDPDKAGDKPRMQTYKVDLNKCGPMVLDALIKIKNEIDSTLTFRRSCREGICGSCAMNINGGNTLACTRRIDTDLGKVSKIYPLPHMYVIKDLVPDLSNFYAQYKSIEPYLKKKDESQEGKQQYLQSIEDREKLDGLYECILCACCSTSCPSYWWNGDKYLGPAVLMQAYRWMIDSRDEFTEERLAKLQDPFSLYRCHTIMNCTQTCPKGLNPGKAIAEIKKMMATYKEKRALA
T1 sequence (Q641Z9 1-169): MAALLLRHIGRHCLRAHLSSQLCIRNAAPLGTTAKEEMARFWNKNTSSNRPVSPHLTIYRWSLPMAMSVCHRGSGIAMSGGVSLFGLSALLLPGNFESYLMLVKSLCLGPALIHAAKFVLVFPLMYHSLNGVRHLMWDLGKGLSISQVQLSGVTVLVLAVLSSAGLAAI
T1 sequence (Q6PCT8 57-159): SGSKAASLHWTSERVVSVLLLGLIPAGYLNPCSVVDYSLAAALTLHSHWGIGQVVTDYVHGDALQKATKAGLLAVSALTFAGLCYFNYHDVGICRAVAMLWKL

[2] = test system: Caenorhabditis elegans strain PE255; test: In vivo C. elegans ATP status assay
[3] = test system: mitochondrial respiratory chain complex V; assay type: biochemical, rat
[4] = test system: HepG2 cells; test: Intracellular ATP content (cell viability) assay; assay type: cell-based, human; conditions: Homo sapiens, HepG2, 40 h
[5] = test system: mitochondrial respiratory chain complex I; assay type: biochemical, rat; conditions: at 100μM
[6] = test system: Nrf2/ARE (ARE-bla HepG2 cells); test: ARE β-lactamase reporter gene assay; assay type: cell-based, human; conditions: 16 h incubation; mean±SD of three experiments
[7] = test system: Caenorhabditis elegans (Bristol N2); test: C. elegans larval development and growth assay
[8] = test system: isolated rat liver mitochondria; test: Oxygen consumption, Clark-type oxygen electrode; assay type: biochemical
[9] = test system: HepG2 cells; test: cells; conditions: Homo sapiens
[10] = test system: mitochondrial respiratory chain complex III; assay type: biochemical, rat
[11] = test system: hNSC; test: MMP assay in human neural stem cells (hNSC); assay type: cell-based; conditions: Homo sapiens, Neural stem cell, 1 h, read-out: hNSC IC50 (MMP)
[12] = test system: HepG2 cells; test: ROS-Glo hydrogen peroxide (ROS) assay; assay type: cell-based, human
[13] = test system: mitochondrial respiratory chain complex IV; assay type: biochemical, rat
[14] = test system: rat primary hepatocytes; test: MMP assay in rat primary hepatocytes; conditions: Rattus norvegicus, Hepatocyte
[15] = test system: rat primary hepatocytes
[16] = test system: p53 (p53-bla HCT-116 cells); test: p53 β-lactamase reporter gene assay; assay type: cell-based, human; conditions: 16 h incubation; mean±SD of three experiments
[17] = test system: HepG2 cells; conditions: cited from earlier work
[18] = test system: Caenorhabditis elegans (Bristol N2); conditions: Bristol N2 (wild type), Caenorhabditis elegans, in vivo
[19] = test system: HeLa cells expressing YFP-Parkin; test: Parkin translocation assay; assay type: cell-based, human

SMILES: CC[C@@H](C(=O)[C@@H](C)[C@@H](O)[C@H](C)CCc1ccc(C)c(O)c1C(=O)O)[C@H]1O[C@](CC)([C@H]2CC[C@](O)(CC)[C@H](C)O2)C[C@@H]1C [Lasalocid sodium, reference compound]
- Complex II % inhibition (activity call) [1]: Inactive
- LUM: mean difference in luminescence (ATP content) relative to plate controls ([2]; 0.5 µM): -0.09691
- LUM: mean difference in luminescence (ATP content) relative to plate controls ([2]; 1 µM): 0.04489
- LUM: mean difference in luminescence (ATP content) relative to plate controls ([2]; 5 µM): 0.262
- LUM: mean difference in luminescence (ATP content) relative to plate controls ([2]; 10 µM): 0.184
- LUM: mean difference in luminescence (ATP content) relative to plate controls ([2]; 25 µM): 0.7982
- LUM: mean difference in luminescence (ATP content) relative to plate controls ([2]; 50 µM): 0.8669
- LUM: mean difference in luminescence (ATP content) relative to plate controls ([2]; 75 µM): 1.247
- LUM: mean difference in luminescence (ATP content) relative to plate controls ([2]; 100 µM): 1.4191
- effect on ATP content (in words) ([2]; 0.5–100μM): inhibited
- minimal effective concentration ([2]; Caenorhabditis elegans, read-out: LEC LUM: lowest effect concentration for luminescence, a measure of nematode ATP content): 25 µM
- Complex V % inhibition (activity call) [3]: Inactive
- IC50 ([4]; read-out: ATP (HepG2, galactose) IC50): 35.4 µM
- IC50 ([4]; read-out: ATP (HepG2, glucose) IC50): 30.7 µM
- Complex I % inhibition [5]: 18.3±6.97 at 100μM %
- ARE (HepG2) EC50 [6]: Inactive
- EXT: mean difference in nematode size relative to plate controls ([7]; 0.5 µM): 0.01876
- EXT: mean difference in nematode size relative to plate controls ([7]; 1 µM): -0.05443
- EXT: mean difference in nematode size relative to plate controls ([7]; 5 µM): 0.2782
- EXT: mean difference in nematode size relative to plate controls ([7]; 10 µM): 0.2152
- EXT: mean difference in nematode size relative to plate controls ([7]; 25 µM): 0.9725
- EXT: mean difference in nematode size relative to plate controls ([7]; 50 µM): 1.753
- EXT: mean difference in nematode size relative to plate controls ([7]; 75 µM): 1.778
- EXT: mean difference in nematode size relative to plate controls ([7]; 100 µM): 1.712
- effect on larval growth (in words) ([7]; 0.5–100μM): inhibited
- minimal effective concentration ([7]; Caenorhabditis elegans, read-out: LEC EXT: lowest effect concentration for extinction, a measure of nematode size): 5 µM
- Potential Mechanism [8]: Uncoupler + Inhibitor
- I-ADP, % of control (O2 consumption rate) ([8]; 0.032 µM): 102 (33.0) % of control
- I-sub, % of control (O2 consumption rate) ([8]; 0.032 µM): 114 (12.4) % of control
- II-ADP, % of control (O2 consumption rate) ([8]; 0.032 µM): 87 (52.0) % of control
- II-sub, % of control (O2 consumption rate) ([8]; 0.032 µM): 98 (20.1) % of control
- I-ADP, % of control (O2 consumption rate) ([8]; 0.16 µM): 105 (34.0) % of control
- I-sub, % of control (O2 consumption rate) ([8]; 0.16 µM): 118 (12.9) % of control
- II-ADP, % of control (O2 consumption rate) ([8]; 0.16 µM): 72 (43.1) % of control
- II-sub, % of control (O2 consumption rate) ([8]; 0.16 µM): 107 (22.1) % of control
- I-ADP, % of control (O2 consumption rate) ([8]; 0.8 µM): 90 (29.2) % of control
- I-sub, % of control (O2 consumption rate) ([8]; 0.8 µM): 120 (13.1) % of control
- II-ADP, % of control (O2 consumption rate) ([8]; 0.8 µM): 57 (34.1) % of control
- II-sub, % of control (O2 consumption rate) ([8]; 0.8 µM): 115 (23.6) % of control
- I-ADP, % of control (O2 consumption rate) ([8]; 4 µM): 81 (26.3) % of control
- I-sub, % of control (O2 consumption rate) ([8]; 4 µM): 164 (17.9) % of control
- II-ADP, % of control (O2 consumption rate) ([8]; 4 µM): 60 (35.9) % of control
- II-sub, % of control (O2 consumption rate) ([8]; 4 µM): 151 (31.2) % of control
- I-ADP, % of control (O2 consumption rate) ([8]; 20 µM): 107 (34.7) % of control
- I-sub, % of control (O2 consumption rate) ([8]; 20 µM): 347 (37.8) % of control
- II-ADP, % of control (O2 consumption rate) ([8]; 20 µM): 48 (28.6) % of control
- II-sub, % of control (O2 consumption rate) ([8]; 20 µM): 160 (33.0) % of control
- I-ADP, % of control (O2 consumption rate) ([8]; 100 µM): 16 (8.1) % of control
- I-sub, % of control (O2 consumption rate) ([8]; 100 µM): 32 (6.9) % of control
- II-ADP, % of control (O2 consumption rate) ([8]; 100 µM): 20 (11.6) % of control
- II-sub, % of control (O2 consumption rate) ([8]; 100 µM): 39 (13.7) % of control
- IC50 ([9]; HepG2, 1 h, read-out: HepG2 IC50 Galactose (MMP)): 1.58 µM
- IC50 ([9]; HepG2, 1 h, read-out: HepG2 IC50 Glucose (MMP)): 1.54 µM
- IC50 ([9]; HepG2, read-out: MMP assays IC50 (µM) HepG2): 1.38 µM
- Emax ([9]; HepG2, read-out: MMP assays efficacy (%) HepG2): 99%
- Complex III % inhibition (activity call) [10]: Inactive
- IC50 [11]: 0.54 µM
- ROS (HepG2) EC50 [12]: Inactive
- Complex IV % inhibition (activity call) [13]: Inactive
- IC50 ([14]; 1 h, read-out: Rat hepatocytes IC50 (MMP)): 1.27 µM
- IC50 ([14]; read-out: MMP assays IC50 (µM) Rat Hepatocytes): 1.3 ± 0.29 µM
- MMP assays efficacy (%) Rat Hepatocytes [15]: -105±1%
- Rat hepatocytes (efficacy) (MMP) [15]: 1.27±0.23 ( −95.6±2.35 ) %
- p53 (HCT-116) EC50 [16]: Inactive
- MMP assays efficacy (%) qHTS-HepG2 [17]: -107±4%
- IC50 ([17]; read-out: MMP assays IC50 (µM), qHTS-HepG2): 1.14 ± 0.07 µM
- LEC (lowest effect concentration), larval growth assay [18]: ≤ 10 µM
- Parkin recruitment [19]: Inactive

Source: publication PMC6112376, “Comprehensive Analyses and Prioritization of Tox21 10K Chemicals Affecting Mitochondrial Function by in-Depth Mechanistic Studies” (Environmental Health Perspectives, 2018)
